Converted amounts (≈) assume the structure as drawn. “And” between values parts separate entries of the source, which are not always exact repeats. Identical values can stand only once. Like-named read-outs stand apart in the source and are kept apart here.
Key:
[1] = test system: Mycobacterium tuberculosis H37Rv; experiment: Minimal inhibitory concentration (Etest); assay type: cell-based, Mycobacterium tuberculosis H37Rv (ATCC 27294)
Text: Mycobacterium tuberculosis H37Rv (ATCC 27294, SRI #1345) was maintained on Middlebrook 7H1O agar slants, containing 0.5% glycerol and 10% OADC (Difco).

[2] = test system: Mycobacterium tuberculosis; experiment: MIC for rifampicin, tuberculosis in primates
[3] = test system: M. tuberculosis H37Rv; conditions: free drug, all three concentrations (0.25, 0.75, 2.0 μg/ml)
[4] = test system: M. tuberculosis H37Rv; conditions: free rifampicin, all concentrations
[5] = test system: M. tuberculosis H37Rv; conditions: for log10 CFU: individual mice; for log10 CFU / Mean log10 CFU: day 26

Q: CO[C@H]1/C=C/O[C@@]2(C)Oc3c(C)c(O)c4c(O)c(c(/C=N/N5CCN(C)CC5)c(O)c4c3C2=O)NC(=O)/C(C)=C\C=C\[C@H](C)[C@H](O)[C@@H](C)[C@@H](O)[C@@H](C)[C@H](OC(C)=O)[C@@H]1C [Rifampicin] was tested. Which MIC [1] did it give?
A: 0.06 to 0.25 µg/mL (≈ 0.0729 to 0.304 µM)

Q: And the MIC ([1]; Etest, read-out: minimal inhibitory concentration (MIC))?
A: 0.06 to 0.25 µg/mL (≈ 0.0729 to 0.304 µM)

Q: What about the MIC [2] of the same compound?
A: 0.06 to 0.25 µg/mL (≈ 0.0729 to 0.304 µM)

Q: And the “reduction in CFUs, J774” value [3]?
A: significant reduction in CFUs

Q: And the “reduction of CFUs, MM6” value [4]?
A: significant reduction of CFUs

Q: And the “log10 CFU” value ([5]; oral 0.42 mg/kg daily, 0.42 mg/kg)?
A: 5.86 log10 CFU and 5.66 log10 CFU and 5.59 log10 CFU and 5.72 log10 CFU and 5.95 log10 CFU and 5.88 log10 CFU and 5.7 log10 CFU and 6.15 log10 CFU

Q: And the “Mean log10 CFU” value ([5]; oral 0.42 mg/kg daily)?
A: 5.62 log10 CFU

Q: What about the “log10 CFU” value ([5]; oral 1.25 mg/kg daily, 1.25 mg/kg) of the same compound?
A: 5.97 log10 CFU and 5.71 log10 CFU and 5.69 log10 CFU and 5.64 log10 CFU and 5.47 log10 CFU and 5.44 log10 CFU and 5.62 log10 CFU and 5.88 log10 CFU and 5.72 log10 CFU

Q: What about the “Mean log10 CFU” value ([5]; oral 1.25 mg/kg daily) of the same compound?
A: 5.68 log10 CFU

Q: What about the “log10 CFU” value ([5]; oral 5.0 mg/kg daily, 5 mg/kg) of the same compound?
A: 5.45 log10 CFU and 5.31 log10 CFU and 5.10 log10 CFU and 5.43 log10 CFU and 5.06 log10 CFU and 5.18 log10 CFU and 5.20 log10 CFU and 5.51 log10 CFU and 5.32 log10 CFU

Q: And the “Mean log10 CFU” value ([5]; oral 5.0 mg/kg daily)?
A: 5.27 log10 CFU

Q: What about the “log10 CFU” value ([5]; oral 10 mg/kg daily, 10 mg/kg) of the same compound?
A: 4.27 log10 CFU and 4.72 log10 CFU and 4.15 log10 CFU and 4.00 log10 CFU and 3.48 log10 CFU and 4.54 log10 CFU and 3.30 log10 CFU and 3.00 log10 CFU and 4.48 log10 CFU

Q: And the “Mean log10 CFU” value ([5]; oral 10 mg/kg daily)?
A: 3.99 log10 CFU

Q: What about the “reductions in viable M. tuberculosis H37Rv” value ([5]; oral 5.0 and 10 mg/kg, 26 days post-infection) of the same compound?
A: significant reductions
